Experiments:
Type in all cases: in vivo
rice (Oryza sativa) = assay: Test B flooded paddy: rice; details: Flood; 250 g ai/ha; applied to paddy water at 2-leaf stage; visually evaluated after 13 to 15 days
Procedure, shortened: (§1)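 Response scored visually, 0–100 relative to controls, 13–15 days after the compound was applied into paddy water; plants were at the 2-leaf stage in pots kept flooded to 3 cm.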

[1] = system: barnyardgrass (Echinochloa crus-galli); assay: Test B flooded paddy: barnyardgrass; details: Flood; 250 g ai/ha; applied to paddy water at 2-leaf stage; visually evaluated after 13 to 15 days
Procedure, shortened: as §1

[2] = system: sedge, umbrella (small-flower umbrella sedge Cyperus difformis); assay: Test B flooded paddy: sedge, umbrella; details: Flood; 250 g ai/ha; applied to paddy water at 2-leaf stage; visually evaluated after 13 to 15 days
Procedure, shortened: as §1

[3] = system: crabgrass, large (large crabgrass, Digitaria sanguinalis); assay: Test A pre-/postemergence: crabgrass, large; details: for Crabgrass, Large plant response rating: Postemergence; for Plant response rating, Crabgrass, Large: Preemergence
Procedure, shortened: (§2)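 Seeds were sown in loam/sand blend and sprayed preemergence (directed soil spray) and, simultaneously, postemergence at 2–10 cm, one- to two-leaf stage, using compounds in non-phytotoxic solvent with surfactant. After ~10 days in greenhouse, injury was rated visually versus untreated controls, 0 (no effect) to 100 (complete control).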

[4] = system: foxtail, giant (giant foxtail, Setaria faberii); assay: Test A pre-/postemergence: foxtail, giant; details: for Foxtail, Giant plant response rating: Postemergence; for Plant response rating, Foxtail, Giant: Preemergence
Procedure, shortened: as §2

[5] = system: pigweed (Amaranthus retroflexus); assay: Test A pre-/postemergence: pigweed; details: for Pigweed plant response rating: Postemergence; for Plant response rating, Pigweed: Preemergence
Procedure, shortened: as §2

[6] = system: velvetleaf (Abutilon theophrasti); assay: Test A pre-/postemergence: velvetleaf; details: for Velvetleaf plant response rating: Postemergence; for Plant response rating, Velvetleaf: Preemergence
Procedure, shortened: as §2

[7] = system: barnyardgrass (Echinochloa crus-galli); assay: Test A pre-/postemergence: barnyardgrass; details: for Barnyardgrass plant response rating: Postemergence; for Plant response rating, Barnyardgrass: Preemergence
Procedure, shortened: as §2

[8] = system: ducksalad (Heteranthera limosa); assay: Test B flooded paddy: ducksalad; details: Flood; 250 g ai/ha; applied to paddy water at 2-leaf stage; visually evaluated after 13 to 15 days
Procedure, shortened: as §1

corn (Zea mays) = assay: Test A pre-/postemergence: corn; details: for Corn plant response rating: Postemergence; for Plant response rating, Corn: Preemergence
Procedure, shortened: as §2

[9] = system: wheat (Triticum aestivum); assay: Test A pre-/postemergence: wheat; details: for Wheat plant response rating: Postemergence; for Plant response rating, Wheat: Preemergence
Procedure, shortened: as §2

[10] = system: morningglory (Ipomoea spp.); assay: Test A pre-/postemergence: morningglory; details: for Morningglory plant response rating: Postemergence; for Plant response rating, Morningglory: Preemergence
Procedure, shortened: as §2

[11] = 125 g ai/ha, 0 to 100 scale, 0 is no effect, 100 is complete control
[12] = 500 g ai/ha, visual rating on 0 to 100 scale (0 no effect, 100 complete control), approximately ten days
[13] = 125 g ai/ha, 0 to 100 scale (0 no effect, 100 complete control)
[14] = 500 g ai/ha, 0 to 100 scale, 0 is no effect, 100 is complete control

CSc1ccccc1-n1nc(C)c(C(=O)c2cccc(C(F)(F)F)c2)n1 [Compound 6]
Plant response rating, Rice (0 to 100 scale, 0 is no effect, 100 is complete control) (rice (Oryza sativa)): 0
Plant response rating, Barnyardgrass (0 to 100 scale, 0 is no effect, 100 is complete control) [1]: 0
Plant response rating, Sedge, Umbrella (0 to 100 scale, 0 is no effect, 100 is complete control) [2]: 0
Crabgrass, Large plant response rating [3, 11]: 0
Crabgrass, Large plant response rating [3, 12]: 20
Plant response rating, Crabgrass, Large [3, 13]: 0
Plant response rating, Crabgrass, Large [3, 14]: 0
Foxtail, Giant plant response rating [4, 11]: 0
Foxtail, Giant plant response rating [4, 12]: 10
Plant response rating, Foxtail, Giant [4, 13]: 0
Plant response rating, Foxtail, Giant [4, 14]: 0
Pigweed plant response rating [5, 11]: 0
Pigweed plant response rating [5, 12]: 30
Plant response rating, Pigweed [5, 13]: 0
Plant response rating, Pigweed [5, 14]: 0
Velvetleaf plant response rating [6, 11]: 0
Velvetleaf plant response rating [6, 12]: 0
Plant response rating, Velvetleaf [6, 13]: 0
Plant response rating, Velvetleaf [6, 14]: 0
Barnyardgrass plant response rating [7, 11]: 0
Barnyardgrass plant response rating [7, 12]: 0
Plant response rating, Barnyardgrass [7, 13]: 0
Plant response rating, Barnyardgrass [7, 14]: 0
Plant response rating, Ducksalad (0 to 100 scale, 0 is no effect, 100 is complete control) [8]: 0
Corn plant response rating (corn (Zea mays); [11]): 0
Corn plant response rating (corn (Zea mays); [12]): 0
Plant response rating, Corn (corn (Zea mays); [13]): 0
Plant response rating, Corn (corn (Zea mays); [14]): 0
Wheat plant response rating [9, 11]: 0
Wheat plant response rating [9, 12]: 0
Plant response rating, Wheat [9, 13]: 0
Plant response rating, Wheat [9, 14]: 0
Morningglory plant response rating [10, 11]: 0
Morningglory plant response rating [10, 12]: 0
Plant response rating, Morningglory [10, 13]: 0
Plant response rating, Morningglory [10, 14]: 0

Reference: patent publication US9302999B2, “Substituted triazoles as herbicides” (E. I. DU PONT DE NEMOURS AND COMPANY, priority 2012, dated 2016)
